Results as given in ChEMBL document CHEMBL1201862, “PubChem BioAssay data set” (2004).
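1) Cells in 96-well plates. 2) Compound, 48 h, 5 concentrations. 3) Linear interpolation between surrounding doses. 4) Unreached endpoint = highest concentration. GI50 marks 50% less growth.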 Active and inactive are the calls of the source. Rule as the data show it: active = GI50 up to about 1.1 µM and inactive = higher.

Key:
Experiment in all cases: DTP human tumour cell line panel, 48 h
786-0 = system: 786-0
A498 = system: A498
A549 = system: A549
ACHN = system: ACHN
BT-549 = system: BT-549
CAKI-1 = system: CAKI-1
CCRF-CEM = system: CCRF-CEM
COLO 205 = system: COLO 205
DU-145 = system: DU-145
EKVX = system: EKVX
HCC 2998 = system: HCC 2998
HCT-116 = system: HCT-116
HCT-15 = system: HCT-15
HL-60 = system: HL-60
HOP-62 = system: HOP-62
HOP-92 = system: HOP-92
HT-29 = system: HT-29
Hs-578T = system: Hs-578T
IGROV-1 = system: IGROV-1
K562 = system: K562
KM12 = system: KM12
LOX IMVI = system: LOX IMVI
M14 = system: M14
MCF7 = system: MCF7
MDA-MB-231 = system: MDA-MB-231
MDA-MB-435 = system: MDA-MB-435
MDA-N = system: MDA-N
MOLT-4 = system: MOLT-4
Malme-3M = system: Malme-3M
NCI-H226 = system: NCI-H226
NCI-H23 = system: NCI-H23
NCI-H460 = system: NCI-H460
NCI-H522 = system: NCI-H522
NCI/ADR-RES = system: NCI/ADR-RES
OVCAR-3 = system: OVCAR-3
OVCAR-4 = system: OVCAR-4
OVCAR-5 = system: OVCAR-5
OVCAR-8 = system: OVCAR-8
PC-3 = system: PC-3
RPMI-8226 = system: RPMI-8226
RXF 393 = system: RXF 393
SF-268 = system: SF-268
SF-295 = system: SF-295
SF-539 = system: SF-539
SK-MEL-28 = system: SK-MEL-28
SK-MEL-2 = system: SK-MEL-2
SK-MEL-5 = system: SK-MEL-5
SK-OV-3 = system: SK-OV-3
SN12C = system: SN12C
SNB-19 = system: SNB-19
SNB-75 = system: SNB-75
SR = system: SR
SW-620 = system: SW-620
T47D = system: T47D
TK-10 = system: TK-10
U-251 = system: U-251
UACC-257 = system: UACC-257
UACC-62 = system: UACC-62
UO-31 = system: UO-31

With COC(=O)c1ccc(CCC2=CC(=O)C(Br)=CC2=O)cc1 the GI50 (786-0) was 19.8 µM (inactive), the GI50 (A498) was 20.2 µM (inactive) and the GI50 (A549) was 19.4 µM (inactive). The GI50 (ACHN) was 12.6 µM (inactive), the GI50 (BT-549) was 11.6 µM (inactive) and the GI50 (CAKI-1) was 13.6 µM (inactive). The GI50 (CCRF-CEM) was 0.615 µM (active), the GI50 (COLO 205) was 6.78 µM (inactive) and the GI50 (DU-145) was 18.1 µM (inactive). The GI50 (EKVX) was 19 µM (inactive), the GI50 (HCC 2998) was 15.7 µM (inactive) and the GI50 (HCT-116) was 16 µM (inactive). The GI50 (HCT-15) was 14.5 µM, the GI50 (HL-60) was 2 µM (inactive) and the GI50 (HOP-62) was 17.8 µM (inactive). For the same molecule, the GI50 (HOP-92) was 5.14 µM (inactive), the GI50 (HT-29) was 16.7 µM (inactive) and the GI50 (Hs-578T) was 20.4 µM (inactive). For the same molecule, the GI50 (IGROV-1) was 15 µM (inactive), the GI50 (K562) was 2.21 µM (inactive) and the GI50 (KM12) was 15.2 µM (inactive). The GI50 (LOX IMVI) was 17.5 µM (inactive), the GI50 (M14) was 14.7 µM (inactive) and the GI50 (MCF7) was 16.5 µM (inactive). The GI50 (MDA-MB-231) was 18.6 µM (inactive), the GI50 (MDA-MB-435) was 16.1 µM (inactive) and the GI50 (MDA-N) was 16 µM (inactive). For the same molecule, the GI50 (MOLT-4) was 2.47 µM (inactive), the GI50 (Malme-3M) was 16.9 µM (inactive) and the GI50 (NCI-H226) was 14.7 µM (inactive). For the same molecule, the GI50 (NCI-H23) was 15.1 µM (inactive), the GI50 (NCI-H460) was 18.2 µM (inactive) and the GI50 (NCI-H522) was 2.68 µM (inactive). For the same molecule, the GI50 (NCI/ADR-RES) was 18.7 µM (inactive), the GI50 (OVCAR-3) was 15.3 µM (inactive) and the GI50 (OVCAR-4) was 17.2 µM (inactive). The GI50 (OVCAR-5) was 18.8 µM (inactive), the GI50 (OVCAR-8) was 16.3 µM (inactive) and the GI50 (PC-3) was 16.9 µM (inactive). The GI50 (RPMI-8226) was 10.2 µM (inactive), the GI50 (RXF 393) was 18.3 µM (inactive) and the GI50 (SF-268) was 19.8 µM (inactive). For the same molecule, the GI50 (SF-295) was 19.5 µM (inactive), the GI50 (SF-539) was 17.8 µM (inactive) and the GI50 (SK-MEL-28) was 16.7 µM (inactive). The GI50 (SK-MEL-2) was 17.1 µM (inactive), the GI50 (SK-MEL-5) was 12.1 µM (inactive) and the GI50 (SK-OV-3) was 17.8 µM (inactive). The GI50 (SN12C) was 17.5 µM (inactive), the GI50 (SNB-19) was 15.6 µM (inactive) and the GI50 (SNB-75) was 14 µM (inactive). For the same molecule, the GI50 (SR) was 2.97 µM (inactive), the GI50 (SW-620) was 13.6 µM (inactive) and the GI50 (T47D) was 21.5 µM (inactive). For the same molecule, the GI50 (TK-10) was 17.3 µM (inactive), the GI50 (U-251) was 16.7 µM (inactive) and the GI50 (UACC-257) was 15.6 µM (inactive). The GI50 (UACC-62) was 17.8 µM (inactive) and the GI50 (UO-31) was 15.8 µM (inactive).
